Article PMC3713598, “Renal Protective Role of Xiexin Decoction with Multiple Active Ingredients Involves Inhibition of Inflammation through Downregulation of the Nuclear Factor-κB Pathway in Diabetic Rats” (Evidence-based Complementary and Alternative Medicine : eCAM, 2013)
Where two headings read alike, the source gives them in different places.

Assays:
[1] = Pharmacokinetics of XXD ingredients in diabetic rat plasma (LC-MS/MS); type: in vivo; conditions: diabetic rats; for AUC(0-t) / Cmax: male, Sprague-Dawley, rat, po, plasma, mean ± SD n = 8; for AUC(0-t): read-out: AUC0–24 h; for Cmax: read-out: C max
Procedure: (§1) Male Sprague-Dawley rats (90−100 g) were purchased from the Shanghai Slac Laboratory Animal Co. (Shanghai, China). The rats were housed in an air-conditioned room at 22–24°C under a 12-h dark/light cycle and were given food and water at libitum. All animal experiments were conducted in accordance with the institutional guidelines for the care and use of laboratory animals at Shanghai University of TCM. After 1-week adaptation, animals were divided into a normal control (NC) group fed a standard diet and a high-fat group received a high-fat diet. After 4 weeks, rats on the high-fat diet were treated with streptozotocin (40 mg/kg, intraperitoneal injection). […] In the clinical practice of TCM, XXD is usually prescribed at a daily dose of 46 g of herbal materials (amount to 12 g extract) for diabetic patient. When this human dose was converted into an animal dose (a person of 60 kg, and a conversion factor of 6.25 between human and rat), it was equivalent to the low dose (1.25 g/kg extract) used in this study. NC and DM were treated with vehicle (normal saline) in a matched volume. All the rats were administered the drugs via intragastric gavage (ig) once a day, for 12 weeks.
The rats treated with XXD for 12 weeks were fasted with free access to water for 12 h before the PK experiments. Blood samples were collected before dosing and at 0, 0.25, 0.5, 1, 2, 4, 6, 12, and 24 h following administration. A validated liquid chromatography-tandem mass spectrometry (LC-MS/MS) method was applied to simultaneously determine the concentration of 11 ingredients (coptisine, jatrorrhizine, berberine, palmatine, baicalin, baicalein, wogonoside, wogonin, rhein, emodin, and aloeemodin) in blood plasma. The plasma concentration-time data were analysed by noncompartmental methods with the WinNonLin software package (Pharsight Corporation, Mountain View, CA, USA) to determine PK parameters.

diabetic nephropathy = conditions: cited from earlier work
diabetic mouse kidney = tested on: diabetic mouse kidney; design: method as in PMID 22483555, PMID 20447389; conditions: cited from earlier work
gut microbes = tested on: gut microbes; design: method as in PMID 21915347, PMID 22880019; conditions: by regulation of gut microbes; cited from earlier work
diabetic rats [2] = experiment: Metabolic parameters in diabetic rats (high-fat diet and streptozotocin); type: in vivo, rat; conditions: for Serum triglyceride: DM 1.1 ± 0.6; for Serum cholesterol: DM 1.5 ± 0.2; for HbA1c: DM 7.2 ± 0.3; for FBG: DM 22.3 ± 2.8; for GAUC (area under the blood glucose response curve): DM 117.1 ± 6.4
Procedure: (§3) After 1-week adaptation, animals were divided into a normal control (NC) group fed a standard diet and a high-fat group received a high-fat diet. After 4 weeks, rats on the high-fat diet were treated with streptozotocin (40 mg/kg, intraperitoneal injection). […] NC and DM were treated with vehicle (normal saline) in a matched volume. All the rats were administered the drugs via intragastric gavage (ig) once a day, for 12 weeks.
At 12 weeks, FBG and area under the blood glucose response curve (GAUC) were measured by glucose oxidase method. HbA1c was determined by HPLC (Biorad, Richmond, CA, USA). Serum creatinine, urine creatinine, serum total cholesterol, and triglyceride levels were measured using an automatic biochemistry analyser (Olympus-2000, Tokyo, Japan). Creatinine clearance was calculated.

diabetic rats [3] = experiment: Urinary albumin excretion and renal function in diabetic rats; type: in vivo, rat
Procedure: as §3
At 12 weeks, FBG and area under the blood glucose response curve (GAUC) were measured by glucose oxidase method. HbA1c was determined by HPLC (Biorad, Richmond, CA, USA). Serum creatinine, urine creatinine, serum total cholesterol, and triglyceride levels were measured using an automatic biochemistry analyser (Olympus-2000, Tokyo, Japan). Creatinine clearance was calculated. The kidneys were removed, weighed, and parts of them frozen at −80°C until processing for Western blot and RNA extraction, while other parts were removed for histological examination.

diabetic rats [4] = experiment: Renal histopathology (PAS) and electron microscopy in diabetic rats; type: in vivo, rat; conditions: XXD 1.25 and 2.5 g/kg, losartan 10 mg/kg, metformin 100 mg/kg ig once a day, 12 weeks; compared with DM
Procedure: Male Sprague-Dawley rats (90-100 g) were purchased from the Shanghai Slac Laboratory Animal Co. (Shanghai, China). The rats were housed in an air-conditioned room at 22-24°C under a 12-h dark/light cycle and were given food and water at libitum. All animal experiments were conducted in accordance with the institutional guidelines for the care and use of laboratory animals at Shanghai University of TCM. After 1-week adaptation, animals were divided into a normal control (NC) group fed a standard diet and a high-fat group received a high-fat diet. After 4 weeks, rats on the high-fat diet were treated with streptozotocin (40 mg/kg, intraperitoneal injection). All diabetic rats with fasting blood glucose (FBG) levels above 16.7 mmol/L were then randomly divided into 5 groups: diabetic model control (DM); […] In the clinical practice of TCM, XXD is usually prescribed at a daily dose of 46 g of herbal materials (amount to 12 g extract) for diabetic patient. […] The ratio of the mesangial matrix area to glomerular area (M/G) was determined by quantitative Image-Pro Plus software (PAX-it; […], Villa Park, IL, USA). Briefly, 20 glomeruli were randomly selected from each section, and positive signals within the selected glomerulus were highlighted, measured, and quantified as percent positive area of the entire glomerulus. […]

MCP-1 = experiment: Renal MCP-1 protein and mRNA expression in diabetic rats; type: in vivo, rat; conditions: XXD 1.25 and 2.5 g/kg, losartan 10 mg/kg, metformin 100 mg/kg ig once a day, 12 weeks; compared with DM
Procedure: as §1, with “rats (90-100” for “rats (90−100”, “at 22-24°C” for “at 22–24°C”, “injection). All diabetic rats with fasting blood glucose (FBG) levels above 16.7 mmol/L were then randomly divided into 5 groups: diabetic model control (DM);” for “injection).”, “study. […] The membrane-bound antibody was detected by incubation with chemiluminescent reagent plus (Perkin Elmer Life Sciences, Boston, MA, USA)” for “study. NC”, “and” for “and DM were treated with vehicle (normal saline) in a matched volume. All”, “the signal captured on X-ray film. […]” for “the rats were administered the drugs via intragastric gavage (ig) once a day, for 12 weeks.”

ICAM-1 = experiment: Renal ICAM-1 protein and mRNA expression in diabetic rats; type: in vivo, rat; conditions: XXD 1.25 and 2.5 g/kg, losartan 10 mg/kg, metformin 100 mg/kg ig once a day, 12 weeks; compared with DM
Procedure: as §1, with “rats (90-100” for “rats (90−100”, “at 22-24°C” for “at 22–24°C”, “injection). All diabetic rats with fasting blood glucose (FBG) levels above 16.7 mmol/L were then randomly divided into 5 groups: diabetic model control (DM);” for “injection).”, “study. […] The membrane-bound antibody was detected by incubation with chemiluminescent reagent plus (Perkin Elmer Life Sciences, Boston, MA, USA)” for “study. NC”, “and” for “and DM were treated with vehicle (normal saline) in a matched volume. All”, “the signal captured on X-ray film. […]” for “the rats were administered the drugs via intragastric gavage (ig) once a day, for 12 weeks.”

TNF-α = experiment: Renal TNF-α level by ELISA in diabetic rats; type: in vivo, rat; conditions: XXD 1.25 and 2.5 g/kg, losartan 10 mg/kg, metformin 100 mg/kg ig once a day, 12 weeks; compared with DM
Procedure: (§2) Male Sprague-Dawley rats (90-100 g) were purchased from the Shanghai Slac Laboratory Animal Co. (Shanghai, China). The rats were housed in an air-conditioned room at 22-24°C under a 12-h dark/light cycle and were given food and water at libitum. All animal experiments were conducted in accordance with the institutional guidelines for the care and use of laboratory animals at Shanghai University of TCM. After 1-week adaptation, animals were divided into a normal control (NC) group fed a standard diet and a high-fat group received a high-fat diet. After 4 weeks, rats on the high-fat diet were treated with streptozotocin (40 mg/kg, intraperitoneal injection). All diabetic rats with fasting blood glucose (FBG) levels above 16.7 mmol/L were then randomly divided into 5 groups: diabetic model control (DM); […] In the clinical practice of TCM, XXD is usually prescribed at a daily dose of 46 g of herbal materials (amount to 12 g extract) for diabetic patient. When this human dose was converted into an animal dose (a person of 60 kg, and a conversion factor of 6.25 between human and rat), it was equivalent to the low dose (1.25 g/kg extract) used in this study. […] Tumor necrosis factor α (TNF-α), IL-6 and AGEs protein levels in renal tissue were measured using commercial ELISA kits (R&D, Minneapolis, MN, USA) according to the manufacturer's instructions.

IL-6 = experiment: Renal IL-6 level by ELISA in diabetic rats; type: in vivo, rat; conditions: XXD 1.25 and 2.5 g/kg, losartan 10 mg/kg ig once a day, 12 weeks; compared with DM
Procedure: as §2

TGF-β1 = experiment: Renal TGF-β1 protein and mRNA expression in diabetic rats; type: in vivo, rat; conditions: XXD 1.25 and 2.5 g/kg, losartan 10 mg/kg ig once a day, 12 weeks; compared with DM
Procedure: as §2, with “The membrane-bound antibody was detected by incubation with chemiluminescent reagent plus (Perkin Elmer Life Sciences, Boston, MA, USA)” for “Tumor necrosis factor α (TNF-α), IL-6”, “and” for “and AGEs protein levels in renal tissue were measured using commercial ELISA kits (R&D, Minneapolis, MN, USA) according to”, “signal captured on X-ray film. […]” for “manufacturer's instructions.”

NF-κB signalling pathway = experiment: Renal NF-κB signalling pathway (western blot, real-time PCR) in diabetic rats; type: in vivo, rat; conditions: XXD 1.25 and 2.5 g/kg, losartan 10 mg/kg ig once a day, 12 weeks; compared with DM
Procedure: as §2, with “The membrane-bound antibody was detected by incubation with chemiluminescent reagent plus (Perkin Elmer Life Sciences, Boston, MA, USA)” for “Tumor necrosis factor α (TNF-α), IL-6”, “and” for “and AGEs protein levels in renal tissue were measured using commercial ELISA kits (R&D, Minneapolis, MN, USA) according to”, “signal captured on X-ray film. […]” for “manufacturer's instructions.”

AGEs = experiment: Renal AGEs level by ELISA in diabetic rats; type: in vivo, rat; conditions: XXD 1.25 and 2.5 g/kg, metformin 100 mg/kg ig once a day, 12 weeks; compared with DM
Procedure: as §1
Tumor necrosis factor α (TNF-α), IL-6 and AGEs protein levels in renal tissue were measured using commercial ELISA kits (R&D, Minneapolis, MN, USA) according to the manufacturer's instructions.

RAGE = experiment: Renal RAGE expression by western blot in diabetic rats; type: in vivo, rat; conditions: XXD 1.25 and 2.5 g/kg, metformin 100 mg/kg ig once a day, 12 weeks; compared with DM
Procedure: as §1, with “NC and DM were treated with vehicle (normal saline) in a matched volume. All the rats were administered the drugs via intragastric gavage (ig) once a day, for 12 weeks.” left out
Kidney tissue was homogenized in radioimmunoprecipitation assay buffer containing 0.5% Nonidet P-40, 0.5% sodium deoxycholate, 0.1% SDS, 10 mmol/L EDTA, and protease inhibitors. […] The membrane-bound antibody was detected by incubation with chemiluminescent reagent plus (Perkin Elmer Life Sciences, Boston, MA, USA) and the signal captured on X-ray film. […]

[5] = XXD 1.25 g/kg intragastric gavage for 12 weeks
[6] = XXD 2.5 g/kg intragastric gavage for 12 weeks
[7] = losartan 10 mg/kg ig once a day 12 weeks
[8] = metformin 100 mg/kg ig once a day 12 weeks

Structure (SMILES): COc1ccc2cc3[n+](cc2c1OC)CCc1cc2c(cc1-3)OCO2 [Berberine, berberine]
- shape of plasma concentration-time curve ([1]; after ig administration of XXD for 12 weeks): double peaks
- AUC(0-t) [1, 5]: 757 ± 389 ng·h/mL
- Cmax [1, 5]: 51 ± 20 ng/mL
- AUC(0-t) [1, 6]: 1730 ± 1040 ng·h/mL
- Cmax [1, 6]: 118 ± 78 ng/mL
- anti-DN effects (diabetic nephropathy): exhibited anti-DN effects
- TGF-β1, ICAM-1, and VCAM-1 protein expression (diabetic mouse kidney): downregulating
- renal AGE generation (diabetic mouse kidney): inhibiting
- IKBα protein level (diabetic mouse kidney; diabetic mouse kidney): increased
- NF-κBp65 protein level (diabetic mouse kidney; diabetic mouse kidney): decreased
- blood lipid levels (gut microbes): reduced

Structure (SMILES): CCCCc1nc(Cl)c(CO)n1Cc1ccc(-c2ccccc2-c2nn[nH]n2)cc1 [losartan]
- Serum triglyceride (diabetic rats [2]; [7]): 0.7 ± 0.3 mmol/L
- Serum cholesterol (diabetic rats [2]; [7]): 1.3 ± 0.2 mmol/L
- HbA1c (diabetic rats [2]; [7]): 6.9 ± 0.2%
- FBG (diabetic rats [2]; [7]): 21.6 ± 4.4 mmol/L
- GAUC (area under the blood glucose response curve) (diabetic rats [2]; [7]): 111.8 ± 11.1 mmol·h/L
- urinary albumin excretion (UAE) (diabetic rats [3]; XXD 1.25 and 2.5 g/kg, losartan 10 mg/kg, metformin 100 mg/kg ig once a day, 12 weeks, compared with DM): significantly reduced
- Kidney weight/body weight (diabetic rats [3]; losartan 10 mg/kg ig once a day 12 weeks, DM 1.18 ± 0.06): 1.00 ± 0.05 %
- renal pathological changes (glomerular hypertrophy, mesangial matrix expansion, M/G, basement membrane thickening) (diabetic rats [4]): ameliorated
- renal protein and mRNA MCP-1 expression (MCP-1): significantly downregulated
- renal protein and mRNA ICAM-1 expression (ICAM-1): significantly downregulated
- renal TNF-α level (TNF-α): significantly downregulated
- renal IL-6 level (IL-6): significantly downregulated
- renal TGF-β1 protein and mRNA expression (TGF-β1): significantly downregulated
- renal IKKα, phospho-IκBα, phospho-NF-κBp65, NF-κBp65 and IκBα protein expression changes (NF-κB signalling pathway): significantly ameliorated
- renal NF-κBp65 mRNA expression (NF-κB signalling pathway): downregulated

Structure (SMILES): CN(C)C(=N)N=C(N)N [metformin]
- Serum triglyceride (diabetic rats [2]; [8]): 1.0 ± 0.3 mmol/L
- Serum cholesterol (diabetic rats [2]; [8]): 1.2 ± 0.4 mmol/L
- HbA1c (diabetic rats [2]; [8]): 6.6 ± 0.5 %
- FBG (diabetic rats [2]; [8]): 9.4 ± 2.5 mmol/L
- GAUC (area under the blood glucose response curve) (diabetic rats [2]; [8]): 70.9 ± 9.5 mmol·h/L
- renal pathological changes (glomerular hypertrophy, mesangial matrix expansion, M/G, basement membrane thickening) (diabetic rats [4]): ameliorated
- total renal AGEs content (AGEs): significantly reduced
- renal RAGE expression (RAGE): downregulated
- renal protein and mRNA MCP-1 expression (MCP-1): significant reduction
- renal protein and mRNA ICAM-1 expression (ICAM-1): significant reduction
- renal TNF-α level (TNF-α): significant reduction
